Tested on: PSMA-expressing LNCAP cancer xenografts
Assay: Biodistribution and tumor-to-background contrast ratios of 18F-labeled tracers
Type: in vivo, mouse (NODSCID 1L2RγKO male mice)
Description: LNCap cell line was obtained from ATCC (LNCaP clone FGC, CRL-1740). It was established from a metastatic site of left supraclavicular lymph node of human prostatic adenocarcinoma. Cells were cultured in PRMI 1640 medium supplemented with 10% FBS, penicillin (100 U/mL) and streptomycin (100 μg/mL) at 37° C. in a humidified incubator containing 5% CO2. Cells grown to 80-90% confluence were then washed with sterile phosphate-buffered saline (1×PBS pH 7.4) and trypsinization. The collected cells number was counted with a Hausser Scientific (Horsham, Pa.) Hemacytometer.
Imaging and biodistribution experiments were performed using NODSCID 1L2RγKO male mice. Mice were anesthetized by inhalation with 2% isoflurane in oxygen, and implanted subcutaneously with 1×10^7 LNCaP cells behind left shoulder. Mice were imaged or used in biodistribution studies when the tumor grew up to reach 5-8 mm in diameter during 5-6 weeks.
PET imaging experiments were conducted using Siemens Inveon micro PET/CT scanner. Each tumor bearing mouse was injected 6-8 MBq of F-18 labeled tracer through the tail vein under anesthesia (2% isoflurane in oxygen). The mice were allowed to recover and roam freely in their cage. After 50 min, the mice were sedated again with 2% isoflurane in oxygen inhalation and positioned in the scanner. A 10-min CT scan was conducted first for localization and attenuation correction after segmentation for reconstructing the PET images. Then, a 10-min static PET imaging was performed to determined uptake in tumor and other organs. The mice were kept warm by a heating pad during acquisition. For imaging studies acquired at 2 h post-injection (p.i.), the mice were placed in the micro PET/CT scanner at 110 min p.i. Then, the CT and PET acquisitions were conducted as described above.
For biodistribution studies, the mice were injected with the radiotracer as described above. At predetermined time points (1 or 2 h), the mice was anesthetized with 2% isoflurane inhalation, and euthanized by CO2 inhalation. Blood was withdrawn immediately from the heart, and the organs/tissues of interest were collected. The collected organs/tissues were weighed and counted using an automatic gamma counter. The uptake in each organ/tissue was normalized to the injected dose using a standard curve, and expressed as the percentage of the injected dose per gram of tissue (% ID/g).

| Biodistribution Adrenal glands (1 h) | Biodistribution Blood (1 h) | Biodistribution Bone (1 h) | Biodistribution Brain (1 h) | Biodistribution Fat (1 h) | Biodistribution Heart (1 h) | Biodistribution Intestine (1 h) | Biodistribution Kidneys (1 h) | Biodistribution Liver (1 h) | Biodistribution Lungs (1 h) | Biodistribution Muscle (1 h) | Biodistribution Pancreas (1 h) | Biodistribution Spleen (1 h) | Biodistribution Stomach (1 h) | Biodistribution Testes (1 h) | Biodistribution Tumor (1 h) | Tumor:Blood contrast ratio (1 h) | Tumor:Muscle contrast ratio (1 h) | Tumor:kidney contrast ratio (1 h) | Biodistribution Adrenal glands (2 h) | Compound | also measured |
| --- | --- | --- | --- | --- | --- | --- | --- | --- | --- | --- | --- | --- | --- | --- | --- | --- | --- | --- | --- | --- | --- |
| 4.77 ± 1.75 % ID/g | 0.57 ± 0.15 % ID/g | 0.36 ± 0.02 % ID/g | 0.04 ± 0.01 % ID/g | 0.99 ± 0.39 % ID/g | 0.30 ± 0.06 % ID/g | 0.54 ± 0.11 % ID/g | 114 ± 41.3 % ID/g | 2.90 ± 0.56 % ID/g | 1.37 ± 0.36 % ID/g | 0.26 ± 0.08 % ID/g | 0.55 ± 0.16 % ID/g | 2.67 ± 0.98 % ID/g | 0.12 ± 0.05 % ID/g | 0.62 ± 0.15 % ID/g | 6.04 ± 1.24 % ID/g | 10.8 ± 1.64 | 23.4 ± 3.71 | 0.07 ± 0.06 | 3.66 ± 2.01 % ID/g | C[N+](C)(Cc1ccc(C(=O)NCCCC[C@H](NC(=O)N[C@@H](CCC(=O)O)C(=O)O)C(=O)O)cc1)C[B-](F)(F)[18F] [F-18 HTK-01069] | Biodistribution Blood (2 h): 0.24 ± 0.10 % ID/g; Biodistribution Bone (2 h): 0.30 ± 0.10 % ID/g; Biodistribution Brain (2 h): 0.04 ± 0.01 % ID/g; Biodistribution Fat (2 h): 0.86 ± 0.53 % ID/g; Biodistribution Heart (2 h): 0.20 ± 0.08 % ID/g; Biodistribution Intestine (2 h): 0.72 ± 0.15 % ID/g; Biodistribution Kidneys (2 h): 103 ± 56.7 % ID/g; Biodistribution Liver (2 h): 2.75 ± 0.56 % ID/g; Biodistribution Lungs (2 h): 0.99 ± 0.32 % ID/g; Biodistribution Muscle (2 h): 0.15 ± 0.04 % ID/g; Biodistribution Pancreas (2 h): 0.41 ± 0.20 % ID/g; Biodistribution Spleen (2 h): 1.93 ± 0.85 % ID/g; Biodistribution Stomach (2 h): 0.09 ± 0.03 % ID/g; Biodistribution Testes (2 h): 0.40 ± 0.06 % ID/g; Biodistribution Tumor (2 h): 5.47 ± 0.75 % ID/g; Tumor:Blood contrast ratio (2 h): 26.9 ± 13.3; Tumor:Muscle contrast ratio (2 h): 37.4 ± 8.86; Tumor:kidney contrast ratio (2 h): 0.07 ± 0.03 |
| 4.65 ± 1.75 % ID/g | 0.52 ± 0.06 % ID/g | 0.44 ± 0.09 % ID/g | 0.04 ± 0.01 % ID/g | 0.73 ± 0.26 % ID/g | 0.33 ± 0.08 % ID/g | 0.33 ± 0.05 % ID/g | 71.7 ± 18.0 % ID/g | 1.69 ± 0.19 % ID/g | 1.39 ± 0.17 % ID/g | 0.23 ± 0.04 % ID/g | 0.33 ± 0.05 % ID/g | 5.01 ± 0.64 % ID/g | 0.10 ± 0.03 % ID/g | 0.67 ± 0.17 % ID/g | 8.28 ± 1.25 % ID/g | 16.0 ± 1.37 | 37.3 ± 9.53 | 0.12 ± 0.04 | 2.11 ± 0.78 % ID/g | C[N+](C)(Cc1cn(Cc2ccc(C(=O)NCCCC[C@H](NC(=O)N[C@@H](CCC(=O)O)C(=O)O)C(=O)O)cc2)nn1)C[B-](F)(F)[18F] [F-18 HTK-01070] | Biodistribution Blood (2 h): 0.23 ± 0.11 % ID/g; Biodistribution Bone (2 h): 0.30 ± 0.06 % ID/g; Biodistribution Brain (2 h): 0.03 ± 0.01 % ID/g; Biodistribution Fat (2 h): 0.62 ± 0.34 % ID/g; Biodistribution Heart (2 h): 0.13 ± 0.06 % ID/g; Biodistribution Intestine (2 h): 0.29 ± 0.08 % ID/g; Biodistribution Kidneys (2 h): 68.5 ± 28.7 % ID/g; Biodistribution Liver (2 h): 1.50 ± 0.30 % ID/g; Biodistribution Lungs (2 h): 0.69 ± 0.23 % ID/g; Biodistribution Muscle (2 h): 0.12 ± 0.03 % ID/g; Biodistribution Pancreas (2 h): 0.21 ± 0.07 % ID/g; Biodistribution Spleen (2 h): 1.30 ± 0.48 % ID/g; Biodistribution Stomach (2 h): 0.06 ± 0.02 % ID/g; Biodistribution Testes (2 h): 0.36 ± 0.21 % ID/g; Biodistribution Tumor (2 h): 7.56 ± 1.57 % ID/g; Tumor:Blood contrast ratio (2 h): 38.9 ± 18.8; Tumor:Muscle contrast ratio (2 h): 67.7 ± 14.8; Tumor:kidney contrast ratio (2 h): 0.14 ± 0.10 |
